# Reference: patent US10647680B2, “Urea compound, preparation method therefor and medical use thereof” (Ancureall Pharmaceutical (Shanghai) Co., Ltd., priority 2016, dated 2020)
# Tests used:
# [1] = system: KG-1 (expressing FGFR1OP2-FGFR1 fusion protein); test: In vitro growth inhibition (GI50), KG-1; type: cell-based; settings: Homo sapiens; Cell lines of leukemia; read-out: GI 50 KG-1 FGFR1OP 2-FGFR1
# [2] = system: RAMOS (positive expression of Brutons tyrosine protein kinase); test: In vitro growth inhibition (GI50), RAMOS; type: cell-based; settings: Homo sapiens, Cell lines of leukemia, read-out: GI 50 Ramos BTK
# RS4; 11 (FLT3 wild type) = test: In vitro growth inhibition (GI50), RS4; 11; type: cell-based, human; settings: Homo sapiens, RS4-11; Cell lines of leukemia; read-out: GI 50 RS4: 11 FLT3 (WT)
# HL-60 (FLT3 wild type) = test: In vitro growth inhibition (GI50), HL-60; type: cell-based; settings: Homo sapiens, Cell lines of leukemia, read-out: GI 50 HL60 FLT3 (WT)
# Method in brief: (§1)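 Cells in RPMI1640 with 10% FBS, seeded at 5–10×10^4 cells/mL, exposed next day to compound at 5,000 nM down to 0.01 nM (2- or 10-fold dilutions, ≤1% solvent) for 3–5 days at 37 °C. CCK8 absorbance at 450 nm, growth rate relative to pre-treatment and solvent controls, GI50 from concentration–growth curve.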
# U937 (FLT3 wild-type) = test: In vitro growth inhibition (GI50), U937; type: cell-based; settings: Homo sapiens, U-937; Cell lines of leukemia; read-out: GI 50 U937 FLT 3(WT)
# [3] = system: OCI-AML3 (NPMc+ mutant type); test: In vitro growth inhibition (GI50), OCI-AML3; type: cell-based; settings: Homo sapiens, OCI-AML-3; Cell lines of leukemia; read-out: GI 50 OCI- AML3 NPMc+
# [4] = system: MOLM-13 (FLT3 ITD+/− mutant type); test: In vitro growth inhibition (GI50), MOLM-13; type: cell-based, human; settings: Homo sapiens, MOLM-13; Cell lines of leukemia; read-out: GI 50 MOLM-13 FLT3 (ITD+/−)
# [5] = system: K562 (FLT3 negative expression, positive expression of BCR-ABL fusion protein); test: In vitro growth inhibition (GI50), K562; type: cell-based; settings: Homo sapiens, Cell lines of leukemia, read-out: GI 50 K562 BCR-ABL
# [6] = system: MV4-11 (FLT3 ITD+/+ mutant type); test: In vitro growth inhibition (GI50), MV4-11; type: cell-based, human; settings: Homo sapiens, MV4-11; Cell lines of leukemia; read-out: GI 50 MV4-11 FLT3 (ITD +/+)
# [7] = system: Kasumi-1 (c-Kit N822K mutant type); test: In vitro growth inhibition (GI50), Kasumi-1; type: cell-based; settings: Homo sapiens, Cell lines of leukemia, read-out: GI 50 Kasumi-1 Kit (N822K)
# Method in brief: as §1
GI50 [2],GI50 (RS4; 11 (FLT3 wild type)),GI50 (HL-60 (FLT3 wild type)),GI50 (U937 (FLT3 wild-type)),GI50 [3],GI50 [4],GI50 [5],GI50 [6],SMILES,GI50 [1],GI50 [7]
100 to 1000 nM,100 to 1000 nM,> 1000 nM,> 1000 nM,> 1000 nM,0.1 to 1 nM,100 to 1000 nM,0.1 to 1 nM,"COc1cc2ncn(-c3ccc(NC(=O)Nc4cc(C(C)(C)C)on4)cc3)c2cc1OC [Compound 31, 1-(5-tert-butyl-isoxazol-3-yl)-3-[4-(5,6-dimethoxyl-benzimidazol-1-yl)-phenyl]-urea]",> 1000 nM,100 to 1000 nM
> 1000 nM,> 1000 nM,> 1000 nM,> 1000 nM,> 1000 nM,1 to 10 nM,> 1000 nM,1 to 10 nM,"Cc1cc2ncn(-c3ccc(NC(=O)Nc4cc(C(C)(C)C)on4)cc3)c2cc1C [Compound 32, 1-(5-tert-butyl-isoxazol-3-yl)-3-[4-(5,6-dimethyl-benzimidazol-1-yl)-phenyl]-urea]",> 1000 nM,> 1000 nM
> 1000 nM,> 1000 nM,100 to 1000 nM,> 1000 nM,> 1000 nM,1 to 10 nM,> 1000 nM,1 to 10 nM,"Cc1cc(F)cc2ncn(-c3ccc(NC(=O)Nc4cc(C(C)(C)C)on4)cc3)c12 [Compound 33, 1-(5-tert-butyl-isoxazol-3-yl)-3-[4-(5-fluoro-7-methyl-benzimidazol-1-yl)-phenyl]-urea]",> 1000 nM,> 1000 nM
> 1000 nM,> 1000 nM,> 1000 nM,> 1000 nM,> 1000 nM,0.1 to 1 nM,> 1000 nM,0.1 to 1 nM,"CC(C)(C)c1cc(NC(=O)Nc2ccc(-n3cnc4c(F)cccc43)cc2)no1 [Compound 34, 1-(5-tert-butyl-isoxazol-3-yl)-3-[4-(4-fluoro-benzimidazol-1-yl)-phenyl]-urea]",> 1000 nM,> 1000 nM
> 1000 nM,100 to 1000 nM,> 1000 nM,> 1000 nM,> 1000 nM,100 to 1000 nM,100 to 1000 nM,100 to 1000 nM,"Cc1nc2ccccc2n1-c1ccc(NC(=O)Nc2cc(C(C)(C)C)on2)cc1 [Compound 35, 1-(5-tert-butyl-isoxazol-3-yl)-3-[4-(2-methyl-benzimidazol-1-yl)-phenyl]-urea]",> 1000 nM,> 1000 nM
> 1000 nM,> 1000 nM,> 1000 nM,> 1000 nM,> 1000 nM,100 to 1000 nM,> 1000 nM,100 to 1000 nM,"CC(C)(C)c1cc(NC(=O)Nc2ccc(-n3c(Cl)nc4ccccc43)cc2)no1 [Compound 36, 1-(5-tert-butyl-isoxazol-3-yl)-3-[4-(2-chlorobenzimidazol-1-yl)-phenyl]-urea]",> 1000 nM,> 1000 nM
> 1000 nM,> 1000 nM,> 1000 nM,> 1000 nM,> 1000 nM,100 to 1000 nM,> 1000 nM,100 to 1000 nM,"Cc1cc(NC(=O)Nc2cc(C(C)(C)C)on2)ccc1-n1cnc2ccccc21 [Compound 37, 1-(4-benzimidazol-1-yl-3-methyl-phenyl)-3-(5-tert-butyl-isoxazol-3-yl)-urea]",> 1000 nM,> 1000 nM
> 1000 nM,> 1000 nM,> 1000 nM,> 1000 nM,> 1000 nM,100 to 1000 nM,> 1000 nM,100 to 1000 nM,"CC(C)(C)c1cc(NC(=O)Nc2ccc(-n3cnc4ccccc43)c(Cl)c2)no1 [Compound 38, 1-(4-benzimidazol-1-yl-3-chloro-phenyl)-3-(5-tert-butyl-isoxazol-3-yl)-urea]",> 1000 nM,> 1000 nM
> 1000 nM,> 1000 nM,> 1000 nM,> 1000 nM,> 1000 nM,100 to 1000 nM,> 1000 nM,100 to 1000 nM,"CC(C)(C)c1cc(NC(=O)Nc2ccc(-n3cnc4ccccc43)c(F)c2)no1 [Compound 39, 1-(4-benzimidazol-1-yl-3-fluoro-phenyl)-3-(5-tert-butyl-isoxazol-3-yl)-urea]",> 1000 nM,> 1000 nM
> 1000 nM,> 1000 nM,> 1000 nM,> 1000 nM,> 1000 nM,100 to 1000 nM,> 1000 nM,100 to 1000 nM,"CC(C)(C)c1cc(NC(=O)Nc2cc(F)c(-n3cnc4ccccc43)c(F)c2)no1 [Compound 40, 1-(4-benzimidazol-1-yl-3,5-difluoro-phenyl)-3-(5-tert-butyl-isoxazol-3-yl)-urea]",> 1000 nM,> 1000 nM
> 1000 nM,> 1000 nM,> 1000 nM,> 1000 nM,> 1000 nM,10 to 100 nM,> 1000 nM,10 to 100 nM,"CC(C)(C)c1cc(NC(=O)Nc2ccc(-n3cnc4ccccc43)cc2Cl)no1 [Compound 41, 1-(4-benzimidazol-1-yl-2-chloro-phenyl)-3-(5-tert-butyl-isoxazol-3-yl)-urea]",> 1000 nM,> 1000 nM
> 1000 nM,> 1000 nM,> 1000 nM,> 1000 nM,> 1000 nM,1 to 10 nM,> 1000 nM,1 to 10 nM,"CC(C)(C)c1cc(NC(=O)Nc2ccc(-n3cnc4ccccc43)nc2)no1 [Compound 42, 1-(6-benzimidazol-1-yl-pyridin-3-yl)-3-(5-tert-butyl-isoxazol-3-yl)-urea]",> 1000 nM,> 1000 nM
> 1000 nM,> 1000 nM,> 1000 nM,> 1000 nM,> 1000 nM,10 to 100 nM,> 1000 nM,10 to 100 nM,"CC(C)(C)c1cc(NC(=O)Nc2cnc(-n3cnc4ccccc43)nc2)no1 [Compound 43, 1-(2-benzimidazol-1-yl-pyrimidin-5-yl)-3-(5-tert-butyl-isoxazol-3-yl)-urea]",> 1000 nM,> 1000 nM
> 1000 nM,> 1000 nM,> 1000 nM,> 1000 nM,> 1000 nM,> 1000 nM,> 1000 nM,> 1000 nM,"CC(C)(C)c1cc(NC(=O)Nc2ccc(-n3ccc4ccccc43)cc2)no1 [Compound 44, 1-(5-tert-butyl-isoxazol-3-yl)-3-(4-indol-1-yl-phenyl)-urea]",> 1000 nM,> 1000 nM
> 1000 nM,> 1000 nM,> 1000 nM,> 1000 nM,> 1000 nM,100 to 1000 nM,> 1000 nM,100 to 1000 nM,"CC(C)(C)c1cc(NC(=O)Nc2ccc(-n3ncc4cccc(F)c43)cc2)no1 [Compound 47, 1-(5-tert-butyl-isoxazol-3-yl)-3-[4-(7-fluoro-indazol-1-yl)-phenyl]-urea]",> 1000 nM,> 1000 nM
> 1000 nM,> 1000 nM,> 1000 nM,> 1000 nM,> 1000 nM,100 to 1000 nM,> 1000 nM,100 to 1000 nM,"CC(C)(C)c1cc(NC(=O)Nc2ccc(-n3nnc4ccccc43)cc2)no1 [Compound 48, 1-(4-benzotriazol-1-yl-phenyl)-3-(5-tert-butyl-isoxazol-3-yl)-urea]",> 1000 nM,> 1000 nM
> 1000 nM,> 1000 nM,> 1000 nM,> 1000 nM,> 1000 nM,100 to 1000 nM,> 1000 nM,100 to 1000 nM,"CC(C)(C)c1cc(NC(=O)Nc2ccc(-n3ccc4cccnc43)cc2)no1 [Compound 49, 1-(5-tert-butyl-isoxazol-3-yl)-3-(4-pyrrolo[2,3-b]pyridin-1-yl-phenyl)-urea]",> 1000 nM,> 1000 nM
> 1000 nM,> 1000 nM,> 1000 nM,> 1000 nM,> 1000 nM,0.1 to 1 nM,> 1000 nM,0.1 to 1 nM,"CC(C)(C)c1cc(NC(=O)Nc2ccc(-n3cnc4cccnc43)cc2)no1 [Compound 50, 1-(5-tert-butyl-isoxazol-3-yl)-3-(4-imidazo[4,5-b]pyridin-3-yl-phenyl)-urea]",> 1000 nM,> 1000 nM
